The test system of experiment [1] is phosphorylation of ERK1/2 in A375 cells containing mutant B-Raf (V600E). Nature of the experiment: Phospho-ERK FACE assay in A375 (B-Raf mutated) melanoma cell line. The class given is cell-based. The conditions noted are these: Homo sapiens, read-out: IC50, A375 melanoma phospho-ERK assay. As to the method: The B-Raf activity can also be determined in a B-Raf mutated melanoma cell line, such as the A375 cell line. Inhibition of phosphorylation of ERK1/2 can be measured using a Fast Activated Cell-based ELISA (FACE) from Active Motif (Carlsbad, U.S.A., CA). E.g. A375 cells, which are cells containing a mutant form of B-Raf (V600E) and thus contain high levels of phosphorylated ERK, can be incubated with Raf inhibitors. Then cells can be incubated with anti-phospho-ERK antibody and subsequently with horse radish peroxidase (HRP)-labeled secondary antibody. Finally, chemiluminescence reagents can be added, which react with HRP, to give a luminescence signal.
Determination of B-Raf Activity Using a A375 (B-Raf mutated) Melanoma Cell Line (Phospho-ERK FACE Assay)
Inhibition of phosphorylation of ERK1/2 was measured using a Fast Activated Cell-based ELISA (FACE) from Active Motif (Carlsbad, U.S.A., CA). Briefly, A375 cells, which are cells containing a mutant form of B-Raf (V600E) and thus contain high levels of phosphorylated ERK, were incubated for 2 hours with Raf inhibitors. Then, cells were fixed with paraformaldehyde, washed and following quenching and blocking, incubated with anti-phospho-ERK antibody, and as a control, on a separate plate, with ERK antibody. After washing and removal of the primary antibodies, the fixed cells were incubated with horse radish peroxidase (HRP)-labeled secondary antibody. Finally, chemiluminescence reagents were added, which react with HRP, to give a luminescence signal.
Detailed protocol: A375 cells were cultured in DMEM/F12 (Dulbecco's Modified Eagle Medium Nutrient Mixture F-12) (Invitrogen), supplemented with 10% fetal bovine serum (FBS) (Biowhittaker), 100 U/ml penicillin G and 100 μg/ml streptomycin (Gibco). For the phospho ERK assay, cells were seeded at a density of 15,000 cells/well in 100 μl culture medium in 96-well plates and incubated in a humidified atmosphere at 5% CO2 and 37° C. After 24 hours, cells were washed with DMEM/F12 supplemented with 0.1% FBS (assay medium 120 μl of assay medium was added and the plates were incubated overnight in a humidified atmosphere at 5% CO2 and 37° C. The next day, the assay medium was removed and compounds diluted in assay medium were added to the cells. Final DMSO concentration in the assay was 1%. After 2 hours incubation, cells were fixed by replacing the assay medium with 100 μl of 4% formaldehyde (Bio-Connect, Huissen, The Netherlands) in PBS. After 20 minutes of incubation at room temperature, cells were washed three times with 200 μl wash buffer (0.1% (vol/vol) Triton X-100 in PBS from the FACE kit) followed by an incubation of 20 minutes with 100 μl quenching buffer, containing 1% (vol/vol) hydrogen peroxide (Thermo Fisher Scientific) and 0.1% (vol/vol) sodium azide (Sigma-Aldrich) in phosphate-buffered saline. Cells were washed two times with wash buffer, incubated for 1 hour with 100 μl antibody blocking buffer from the kit and washed two times again. 40 μl of diluted antibody against phosphorylated ERK1/2 (1:500 from the FACE kit) was added and incubated overnight at 4° C. The phospho-ERK antibody has been raised against a synthetic phospho-peptide corresponding to residues Thr202 and Tyr204 of human ERK1 and Thr185 and Tyr187 of human ERK2. For the detection of total ERK, antibody against ERK1 and ERK2 (1:500 from the FACE kit) was added. The excessive primary antibody was washed out, and 100 μl diluted HRP-conjugated anti-rabbit IgG (1:2000 from the FACE kit) was added and incubated for 1 hour at room temperature. Secondary antibody was removed and cells were washed 3 times with wash buffer and twice with PBS. 50 μl per well of FACE chemiluminescent working solution was added. Chemiluminescence was measured on an Envision Multilabel reader.

Experiment [2] has as its target T1, GST-tagged human recombinant active B-Raf (Δ1-415) (Homo sapiens, UniProt P15056).
T1 construct: GST; purchased Upstate/Millipore
Nature of the experiment: B-Raf kinase activity, IMAP coupled assay (B-Raf/MEK1/ERK2, fluorescence polarization). The class given is biochemical. To be noted: bounds also given as pIC50 (>6, >7, >8); 60 min pre-incubation with compound, ATP 50 μM; read-out: IC50, B-Raf IMAP assay. The essentials:
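Coupled cascade: GST-B-Raf (Δ1-415; 0.2 U/ml) pre-incubated with compound (1% DMSO) 60 min at room temperature, then unactive MEK1 (64 ng/ml), unactive ERK2 (600 ng/ml), 50 nM fluorescein-Erktide and 50 μM ATP added for 60 min at 30 °C, pH 7.2 Tris buffer. Phosphopeptide captured on IMAP beads (60 min); fluorescence polarization read.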
In general terms: Polarisation of emitted light reports the rotation of a fluorescent probe.

Where [3] appears, read: A-375, A375 cells, 2 hours incubation, class between 10 μM and 1 μM (5<pIC50<6).
The mark [4] stands for this setting: A-375, A375 cells, 2 hours incubation, between 1 μM and 100 nM (6<pIC50<7).
Setting [5] is: A-375, A375 cells, 2 hours incubation, class given as below 100 nM (pIC50>7).

In patent US8669256B2, “Substituted thieno[2,3-b]pyrazine compounds as modulators of B-Raf kinase activity” (Merck Sharp & Dohme B.V., priority 2010, dated 2014) one finds IC50 data, which are given here for 20 compounds.

Where two headings read alike, the source gives them in different places. Where only a bound is given, the exact number is not on record here.

T1 sequence (P15056 416-766, stated change not applied): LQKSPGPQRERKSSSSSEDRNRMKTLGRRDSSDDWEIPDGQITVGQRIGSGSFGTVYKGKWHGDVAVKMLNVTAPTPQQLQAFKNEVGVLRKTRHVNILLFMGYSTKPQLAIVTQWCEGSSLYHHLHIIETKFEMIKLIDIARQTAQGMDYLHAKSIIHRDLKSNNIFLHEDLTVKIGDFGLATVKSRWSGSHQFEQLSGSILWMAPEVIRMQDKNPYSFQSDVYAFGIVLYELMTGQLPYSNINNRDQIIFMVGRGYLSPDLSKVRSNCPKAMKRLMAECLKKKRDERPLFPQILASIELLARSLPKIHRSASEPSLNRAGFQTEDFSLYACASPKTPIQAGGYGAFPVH

The term IC50 denotes the concentration needed to halve the response being measured. On to `Cc1ccc(NC(=O)c2cccc(OC(F)(F)F)c2)cc1NC(=O)c1cc2nccnc2s1` [Example 35, N-(2-methyl-5-(3-(trifluoromethoxy)benzamido)phenyl)thieno[2,3-b]pyrazine-6-carboxamide], for which the IC50 in experiment [1] (setting [3]) was 1000 to 10000 nM; in experiment [2], less than 100 nM.

For `Cc1ccc(NC(=O)c2cccc(C3(C#N)CCOCC3)c2)cc1NC(=O)c1cc2nccnc2s1` [Example 36, N-(5-(3-(4-cyanotetrahydro-2H-pyran-4-yl)benzamido)-2-methylphenyl)thieno[2,3-b]pyrazine-6-carboxamide], the IC50 in experiment [1] (setting [3]) is 1000 to 10000 nM; in experiment [2], less than 100 nM.

On to `Cc1ccc(NC(=O)c2ccc(F)c(C(F)(F)F)c2)cc1NC(=O)c1cc2nccnc2s1` [Example 37, N-(5-(4-fluoro-3-(trifluoromethyl)benzamido)-2-methylphenyl)thieno[2,3-b]pyrazine-6-carboxamide], for which the IC50 in experiment [1] (setting [3]) is 1000 to 10000 nM; in experiment [2], less than 100 nM.

With `Cc1ccc(NC(=O)c2cccc(C(F)(F)F)c2F)cc1NC(=O)c1cc2nccnc2s1` [Example 38, N-(5-(2-fluoro-3-(trifluoromethyl)benzamido)-2-methylphenyl)thieno[2,3-b]pyrazine-6-carboxamide], the IC50 in experiment [1] (setting [4]) is 100 to 1000 nM; in experiment [2], less than 100 nM.

Turning to `Cc1ccc(NC(=O)c2cc(OC(F)(F)F)ccc2F)cc1NC(=O)c1cc2nccnc2s1` [Example 39, N-(5-(2-fluoro-5-(trifluoromethoxy)benzamido)-2-methylphenyl)thieno[2,3-b]pyrazine-6-carboxamide], the values for the half-inhibitory concentration (IC50) in experiment [1] (setting [3]) and in experiment [2] were 1000 to 10000 nM and less than 100 nM, respectively.

As to `Cc1ccc(NC(=O)Nc2cccc(C(C)(C)C#N)c2)cc1NC(=O)c1cc2nccnc2s1` [Example 40, N-(5-(3-(3-(2-cyanopropan-2-yl)phenyl)ureido)-2-methylphenyl)thieno[2,3-b]pyrazine-6-carboxamide], the values for the concentration for half-maximal inhibition (IC50) in experiment [1] (setting [3]) and in experiment [2] were 1000 to 10000 nM and less than 100 nM, respectively.

For `Cc1ccc(NC(=O)c2cccc(C(C)(C)C#N)c2)cc1NC(=O)c1sc2nccnc2c1Br` [Example 41, 7-bromo-N-(5-(3-(2-cyanopropan-2-yl)benzamido)-2-methylphenyl)thieno[2,3-b]pyrazine-6-carboxamide], the IC50 in experiment [1] (A-375, 2 h) is 100 to 1000 nM; in experiment [2], less than 10 nM.

In the case of `Cc1ccc(NC(=O)c2cccc(C(C)(C)C#N)c2)cc1NC(=O)c1sc2nccnc2c1C` [Example 42, N-(5-(3-(2-cyanopropan-2-yl)benzamido)-2-methylphenyl)-7-methylthieno[2,3-b]pyrazine-6-carboxamide], the IC50 in experiment [1] (setting [4]) is 100 to 1000 nM; in experiment [2], less than 10 nM.

In the case of `Cc1ccc(NC(=O)c2cccc(C(C)(C)C#N)c2)cc1NC(=O)c1sc2nccnc2c1C#N` [Example 43, 7-cyano-N-(5-(3-(2-cyanopropan-2-yl)benzamido)-2-methylphenyl)thieno[2,3-b]pyrazine-6-carboxamide], the values for the IC50 in experiment [1] (setting [4]) and in experiment [2] were 100 to 1000 nM and less than 10 nM, respectively.

On to `C=Cc1c(C(=O)Nc2cc(NC(=O)c3cccc(C(C)(C)C#N)c3)ccc2C)sc2nccnc12` [Example 44, N-(5-(3-(2-cyanopropan-2-yl)benzamido)-2-methylphenyl)-7-vinylthieno[2,3-b]pyrazine-6-carboxamide], for which the values for the IC50 in experiment [1] (setting [4]) and in experiment [2] were 100 to 1000 nM and less than 10 nM, respectively.

For the compound `CCNc1c(C(=O)Nc2cc(NC(=O)c3cccc(C(C)(C)C#N)c3)ccc2C)sc2nccnc12` [Example 46, N-(5-(3-(2-cyanopropan-2-yl)benzamido)-2-methylphenyl)-7-(ethylamino)thieno[2,3-b]pyrazine-6-carboxamide], the IC50 in experiment [1] (setting [5]) and in experiment [2] was less than 100 nM in each case.

As for `Cc1ccc(NC(=O)c2cccc(C(C)(C)C#N)c2)cc1NC(=O)c1sc2ncc(C#N)nc2c1N` [Example 49, 7-amino-2-cyano-N-(5-(3-(2-cyanopropan-2-yl)benzamido)-2-methylphenyl)thieno[2,3-b]pyrazine-6-carboxamide], the IC50 in experiment [1] (setting [4]) is 100 to 1000 nM; in experiment [2], less than 100 nM.

Turning to `Cc1ccc(NC(=O)c2cccc(C(C)(C)C#N)c2)cc1NC(=O)c1sc2ncc(-c3ccco3)nc2c1N` [Example 50, 7-amino-N-(5-(3-(2-cyanopropan-2-yl)benzamido)-2-methylphenyl)-2-(furan-2-yl)thieno[2,3-b]pyrazine-6-carboxamide], the IC50 in experiment [1] (setting [5]) and in experiment [2] was less than 100 nM throughout.

Consider `CC(C)(C#N)c1cccc(C(=O)Nc2ccc(Br)c(NC(=O)c3cc4nccnc4s3)c2)c1` [Example 51, N-(2-bromo-5-(3-(2-cyanopropan-2-yl)benzamido)phenyl)thieno[2,3-b]pyrazine-6-carboxamide], for which the IC50 is 100 to 1000 nM in experiment [1] (setting [4]) and less than 100 nM in experiment [2].

In the case of `Cc1ccc(NC(=O)c2cccc(C(F)(F)F)c2)cc1NC(=O)c1cc2nc(-c3cccnc3)cnc2s1` [Example 53, N-(2-methyl-5-(3-(trifluoromethyl)benzamido)phenyl)-2-(pyridin-3-yl)thieno[2,3-b]pyrazine-6-carboxamide], the results for the IC50 in experiment [1] (setting [4]) and in experiment [2] were 100 to 1000 nM and less than 100 nM, respectively.

Take `Cc1ccc(NC(=O)c2cccc(C(F)(F)F)c2)cc1NC(=O)c1sc2nccnc2c1N` [Example 54, 7-amino-N-(2-methyl-5-(3-(trifluoromethyl)benzamido)phenyl)thieno[2,3-b]pyrazine-6-carboxamide]: the IC50 in experiment [1] (setting [5]) is less than 100 nM; in experiment [2], less than 10 nM.

`CC(C)(C#N)c1cccc(C(=O)Nc2cc(NC(=O)c3cc4nccnc4s3)c(F)cc2F)c1` [Example 55, N-(5-(3-(2-cyanopropan-2-yl)benzamido)-2,4-difluorophenyl)thieno[2,3-b]pyrazine-6-carboxamide]: the half-inhibitory concentration (IC50) in experiment [1] (setting [3]) was 1000 to 10000 nM; in experiment [2], less than 100 nM.

As to `Cc1ccc(NC(=O)c2cccc(C(C)(C)C#N)c2)cc1NC(=O)c1cc2ncc(NCCN(C)C)nc2s1` [Example 61, N-(5-(3-(2-cyanopropan-2-yl)benzamido)-2-methylphenyl)-3-(2-(dimethylamino)ethylamino)thieno[2,3-b]pyrazine-6-carboxamide], the half-inhibitory concentration (IC50) was 100 to 1000 nM in experiment [1] (setting [4]) and less than 10 nM in experiment [2].

For the compound `Cc1ccc(NC(=O)c2cccc(C(C)(C)C#N)c2)cc1NC(=O)c1cc2ncc(NCCN3CCOCC3)nc2s1` [Example 63, N-(5-(3-(2-cyanopropan-2-yl)benzamido)-2-methylphenyl)-3-(2-morpholinoethylamino)thieno[2,3-b]pyrazine-6-carboxamide], the IC50 in experiment [1] (setting [4]) was 100 to 1000 nM; in experiment [2], less than 10 nM.

Take `COCCNc1cnc2cc(C(=O)Nc3cc(NC(=O)c4cccc(C(C)(C)C#N)c4)ccc3C)sc2n1` [Example 65, N-(5-(3-(2-cyanopropan-2-yl)benzamido)-2-methylphenyl)-3-(2-methoxyethylamino)thieno[2,3-b]pyrazine-6-carboxamide]: the IC50 in experiment [1] (setting [4]) was 100 to 1000 nM; in experiment [2], less than 10 nM.
